The test system of one data set is Plasmodium falciparum. In words: Antiplasmodial activity against asexual Plasmodium falciparum 3D7 infected in human […] cells assessed as reduction in parasite growth measured for 72 hrs by LDH assay. Format: functional, organism-based. Particulars: 3D7, 72 h.
The subject of a further data set is HepG2. In words: Cytotoxicity against human HepG2 cells assessed as inhibition of cell growth incubated for 48 hrs by celltiterglo assay. Format: toxicity, cell-based. The conditions noted are these: hepg2, 48 h.

Molecules are shown by their SMILES.

`Cc1cccc(-c2ccc3ccn(CC(=O)Nc4ccccc4Cl)c3c2)c1`: the EC50 with Plasmodium falciparum amounted to 1.11 µM. For the same molecule, in the data set with HepG2, the CC50 was > 40 µM.

Turning to `Cc1nnc(-c2ccc3ccn(CC(=O)Nc4ccc(C(F)(F)F)cc4)c3c2)o1`, the EC50 in the data set on Plasmodium falciparum turned out to be 2.1 µM. Also, in the data set with HepG2, the CC50 is > 40 µM.

With `Cc1nnc(-c2ccc3ccn(CC(=O)Nc4cccc(C(F)(F)F)c4)c3c2)o1`, the EC50 in the data set with Plasmodium falciparum worked out at 0.615 µM. In addition, the CC50 in the data set with HepG2 was > 40 µM.

Turning to `Cn1cc(-c2cc3c(ccn3CC(=O)Nc3ccccc3Cl)cn2)cn1`, in the data set on Plasmodium falciparum, the EC50 was determined as 8.45 µM. The CC50 in the data set on HepG2 was > 40 µM.

`Cc1nnc(-c2ccc3ccn(CC(=O)Nc4ccncc4Cl)c3c2)o1`: in the data set on Plasmodium falciparum, the EC50 is 7.13 µM. Further, the CC50 in the data set on HepG2 was > 40 µM.

With `Cc1ccc(-c2ccc3ccn(CC(=O)Nc4ccccc4Cl)c3c2)s1`, the EC50 in the data set with Plasmodium falciparum was > 10 µM.

`Cc1nnc(-c2ccc3ccn(CC(=O)Nc4cccnc4)c3c2)o1`: the concentration giving a half-maximal response (EC50) in the data set with Plasmodium falciparum amounted to 4.25 µM. For the same molecule, the CC50 in the data set on HepG2 was > 40 µM.

As to `Cc1nnc(-c2ccc3ccn(CC(=O)Nc4cc(F)cc(F)c4)c3c2)o1`, the EC50 with Plasmodium falciparum came to 1.18 µM. Moreover, the 50% cytotoxic concentration (CC50) with HepG2 was > 40 µM.

With `Cc1cccc(NC(=O)Cn2ccc3ccc(-c4nnc(C)o4)cc32)c1`, in the data set with Plasmodium falciparum, the concentration for a half-maximal effect (EC50) was determined as 2.8 µM. Moreover, in the data set on HepG2, the CC50 was > 40 µM.

`Cc1nnc(-c2ccc3ccn(CC(=O)Nc4ccc(Cl)cc4)c3c2)o1`: the EC50 in the data set on Plasmodium falciparum is 4.47 µM. In addition, the CC50 in the data set on HepG2 is > 40 µM.

Consider `Cc1nnc(-c2ccc3ccn(CC(=O)Nc4ccccc4C)c3c2)o1`, for which the 50% effective concentration (EC50) in the data set with Plasmodium falciparum is 1.18 µM.

As for `Cc1nnc(-c2ccc3ccn(CC(=O)Nc4cc(Cl)cc(Cl)c4)c3c2)o1`, the EC50 in the data set with Plasmodium falciparum was found to be 3.88 µM. In addition, in the data set with HepG2, the CC50 was > 40 µM.

On to `Cc1nnc(-c2ccc3ccn(CC(=O)Nc4ccncc4)c3c2)o1`, for which, in the data set with Plasmodium falciparum, the EC50 came out at 4.68 µM. Moreover, the CC50 in the data set on HepG2 is > 40 µM.

For the molecule `CC(C)n1cc(-c2ccc3ccn(CC(=O)Nc4ccccc4Cl)c3c2)cn1`, the EC50 in the data set with Plasmodium falciparum was > 10 µM.

For the molecule `Cc1cc(-c2ccc3ccn(CC(=O)Nc4ccccc4Cl)c3c2)cnn1`, in the data set on Plasmodium falciparum, the EC50 was determined as 3.65 µM.

Regarding `COc1cccc(NC(=O)Cn2ccc3ccc(-c4nnc(C)o4)cc32)c1`, in the data set on Plasmodium falciparum, the EC50 turned out to be 3.6 µM. Moreover, in the data set with HepG2, the CC50 was > 40 µM.

Regarding `CC(C(=O)Nc1ccccc1Cl)n1ccc2ccc(-c3cnn(C)c3)cc21` (stereo not given), the CC50 in the data set with HepG2 is > 40 µM.

With `Cc1nnc(-c2ccc3ccn(CC(=O)Nc4ccc(C#N)cc4)c3c2)o1`, the EC50 in the data set with Plasmodium falciparum was > 10 µM.

Regarding `Cc1nnc(-c2ccc3ccn(CC(=O)Nc4ccccc4)c3c2)o1`, the EC50 in the data set on Plasmodium falciparum was determined as 1.63 µM. For the same molecule, the CC50 with HepG2 is > 40 µM.

Turning to `Cc1nnc(-c2ccc3ccn(CC(=O)Nc4ccc(F)cc4)c3c2)o1`, in the data set with Plasmodium falciparum, the EC50 was determined as 3.8 µM. For the same molecule, in the data set with HepG2, the CC50 was > 40 µM.

With `COc1cc(NC(=O)Cn2ccc3ccc(-c4nnc(C)o4)cc32)cc(OC)c1`, the EC50 in the data set on Plasmodium falciparum came to 1.18 µM. For the same molecule, the half-maximal cytotoxic concentration (CC50) in the data set on HepG2 is > 40 µM.

As for `O=C(Cn1ccc2ccc(-c3cnn(-c4ccccc4)c3)cc21)Nc1ccccc1Cl`, the EC50 in the data set on Plasmodium falciparum was > 10 µM.

Consider `Cc1ccc(-c2ccc3ccn(CC(=O)Nc4ccccc4Cl)c3c2)cc1`, for which the EC50 in the data set with Plasmodium falciparum is > 10 µM.

In the case of `O=C(Cn1ccc2ccc(-c3cnn(C(F)(F)F)c3)cc21)Nc1ccccc1Cl`, in the data set on Plasmodium falciparum, the EC50 is > 10 µM.

For `Cc1nnc(-c2ccc3ccn(CC(=O)Nc4cccc(F)c4Cl)c3c2)o1`, the EC50 in the data set with Plasmodium falciparum amounted to 1.33 µM. The CC50 with HepG2 was > 40 µM.

Regarding `O=C(Cn1ccc2ccc(-c3nnco3)cc21)Nc1ccccc1Cl`, the EC50 in the data set on Plasmodium falciparum is > 10 µM.

As for `Cc1nnc(-c2ccc3ccn(CC(=O)Nc4cccc(F)c4)c3c2)o1`, the EC50 in the data set with Plasmodium falciparum is 1.45 µM. Further, the CC50 in the data set with HepG2 was > 40 µM.

Turning to `Cc1noc(-c2ccc3ccn(CC(=O)Nc4ccccc4Cl)c3c2)n1`, the EC50 in the data set with Plasmodium falciparum was > 10 µM.

Take `Cc1n[nH]c(C)c1-c1ccc2ccn(CC(=O)Nc3ccccc3Cl)c2c1`: the EC50 in the data set with Plasmodium falciparum is 3.6 µM. Also, the CC50 in the data set with HepG2 is > 40 µM.

As to `Cc1cc(-c2ccc3ccn(CC(=O)Nc4ccccc4Cl)c3c2)ccn1`, in the data set on Plasmodium falciparum, the EC50 stood at 2.83 µM.

Take `Cc1nnc(-c2ccc3ccn(CC(=O)Nc4cccc(C#N)c4)c3c2)o1`: the EC50 in the data set with Plasmodium falciparum was 0.99 µM. Also, the CC50 in the data set on HepG2 was > 40 µM.

Consider `COc1ccc(NC(=O)Cn2ccc3ccc(-c4nnc(C)o4)cc32)cc1`, for which the EC50 in the data set with Plasmodium falciparum is 7.8 µM. Also, in the data set on HepG2, the CC50 is > 40 µM.

For `COc1cc(NC(=O)Cn2cc(Cl)c3ccc(-c4cn(C)nc4C)cc32)cc(OC)c1OC`, in the data set on Plasmodium falciparum, the EC50 worked out at 0.022 µM.

Turning to `Cc1nnc(-c2ccc3ccn(CC(=O)Nc4cccc(Cl)c4Cl)c3c2)o1`, the EC50 with Plasmodium falciparum was 1.33 µM. Also, the CC50 in the data set on HepG2 is > 40 µM.

As to `CCn1cc(-c2ccc3ccn(CC(=O)Nc4ccccc4Cl)c3c2)cn1`, the EC50 in the data set on Plasmodium falciparum was > 10 µM. Besides, the CC50 with HepG2 is > 40 µM.

Consider `Cc1ccc(-c2ccc3ccn(CC(=O)Nc4ccccc4Cl)c3c2)cn1`, for which the EC50 with Plasmodium falciparum was > 10 µM.

Turning to `Cn1cc(-c2cnc3ccn(CC(=O)Nc4ccccc4Cl)c3c2)cn1`, in the data set with Plasmodium falciparum, the concentration giving a half-maximal response (EC50) was > 10 µM.

As for `Cc1nnc(-c2ccc3ccn(CC(=O)Nc4c(F)cccc4F)c3c2)o1`, in the data set on Plasmodium falciparum, the concentration for a half-maximal effect (EC50) was 1.65 µM. In the data set with HepG2, the CC50 is > 40 µM.

With `Cc1nnc(-c2ccc3ccn(CC(=O)Nc4ccccc4C#N)c3c2)o1`, the EC50 with Plasmodium falciparum was found to be 3.48 µM. In the data set on HepG2, the CC50 was > 40 µM.

Consider `Cc1nnc(-c2ccc3ccn(CC(=O)Nc4ccccn4)c3c2)o1`, for which the EC50 in the data set with Plasmodium falciparum is 4.78 µM. The CC50 with HepG2 was > 40 µM.

For `Cc1nnc(-c2ccc3ccn(CC(=O)Nc4cc(F)ccc4F)c3c2)o1`, the EC50 in the data set on Plasmodium falciparum stood at 1.25 µM. Further, the CC50 in the data set on HepG2 is > 40 µM.

On to `O=C(Cn1ccc2ccc(-c3cnn(C(F)F)c3)cc21)Nc1ccccc1Cl`, for which, in the data set on Plasmodium falciparum, the EC50 is 1.5 µM. Also, in the data set on HepG2, the half-maximal cytotoxic concentration (CC50) is > 40 µM.

Turning to `Cn1ccc(-c2ccc3ccn(CC(=O)Nc4ccccc4Cl)c3c2)n1`, the EC50 in the data set on Plasmodium falciparum is > 10 µM.

For `Cc1cc2ccc(-c3cnn(C)c3)cc2n1CC(=O)Nc1ccccc1Cl`, the CC50 with HepG2 is > 40 µM.

On to `Cc1nnc(-c2ccc3ccn(CC(=O)Nc4ccccc4C(F)(F)F)c3c2)o1`, for which the half-maximal effective concentration (EC50) in the data set with Plasmodium falciparum is 3.1 µM. The 50% cytotoxic concentration (CC50) in the data set with HepG2 was > 40 µM.

Regarding `Cc1nnc(-c2ccc3ccn(CC(=O)Nc4cc(F)ccc4Cl)c3c2)o1`, the EC50 in the data set on Plasmodium falciparum is 0.683 µM. Moreover, the CC50 with HepG2 was > 40 µM.

For the molecule `Cc1nnc(-c2ccc3ccn(CC(=O)Nc4cccc(Cl)c4)c3c2)o1`, the EC50 in the data set with Plasmodium falciparum came out at 0.898 µM. For the same molecule, in the data set on HepG2, the CC50 is > 40 µM.

In the case of `Cc1nnc(-c2ccc3ccn(CC(=O)Nc4ccccc4F)c3c2)o1`, in the data set on Plasmodium falciparum, the EC50 was found to be 2.1 µM. For the same molecule, the CC50 in the data set on HepG2 is > 40 µM.

Turning to `Cc1nnc(-c2ccc3ccn(CC(=O)N(C)c4ccccc4)c3c2)o1`, the EC50 in the data set with Plasmodium falciparum is > 10 µM.

For the molecule `Cc1nn(C)cc1-c1ccc2ccn(CC(=O)Nc3ccccc3Cl)c2c1`, the EC50 with Plasmodium falciparum was determined as 0.23 µM. Further, the 50% cytotoxic concentration (CC50) in the data set with HepG2 was > 40 µM.

As to `O=C(Cn1ccc2ccc(-c3cnn(CC(F)(F)F)c3)cc21)Nc1ccccc1Cl`, in the data set on Plasmodium falciparum, the EC50 was > 10 µM.

With `Cn1cc(-c2ccc3ncn(CC(=O)Nc4ccccc4Cl)c3c2)cn1`, the EC50 in the data set on Plasmodium falciparum is > 10 µM.

`O=C(Cn1ccc2ccc(-c3nnc(C(F)(F)F)o3)cc21)Nc1ccccc1Cl`: the EC50 in the data set on Plasmodium falciparum was > 10 µM.

Take `COc1ccc(NC(=O)Cn2ccc3ccc(-c4nnc(C)o4)cc32)cc1OC`: the EC50 in the data set on Plasmodium falciparum turned out to be 1.55 µM. Further, the CC50 in the data set with HepG2 is > 40 µM.

For the molecule `COc1ccccc1NC(=O)Cn1ccc2ccc(-c3nnc(C)o3)cc21`, the EC50 with Plasmodium falciparum was > 10 µM.

With `CC(C)c1nnc(-c2ccc3ccn(CC(=O)Nc4ccccc4Cl)c3c2)o1`, in the data set with Plasmodium falciparum, the EC50 was > 10 µM.

As to `Cn1cc(-c2ccc3cnn(CC(=O)Nc4ccccc4Cl)c3c2)cn1`, the EC50 with Plasmodium falciparum is > 10 µM.

The values above are taken from ChEMBL document CHEMBL6115053, “Optimization and Characterization of N-Acetamide Indoles as Antimalarials That Target PfATP4” (J Med Chem, 2025).
